System: infected cooling water
Test: Biocide test: bacterial counts in dosed samples of infected cooling water after 17 hours
Type: cell-based
Details: for bacterial counts per ml.: Table 2 (Example 6), control 10⁷
Description: Ethyl tris (hydroxymethyl) phosphonium chloride (Ethyl THPC) prepared according to the method of example 4, THPS, and a tetrakis (1 - hydroxy ethyl) phosphonium chloride (comparative example) were each dosed at four different concentrations to separate samples of an infected cooling water.
Bacterial counts per ml. of solution were estimated after 17 hours. The results are set out in Table 1 Table 1
Methyl tris (hydroxy methyl) phosphonium chloride (methyl THPC), THPS, and two other comparative examples, cyclohexyl tris (hydroxy methyl) phosphonium chloride and octyl tris (hydroxy methyl) phosphonium sulphate were each added at concentrations of 50, 200 and 1,000 ppm to separate samples of an infected cooling water.
Allyl tris (hydroxymethyl) phosphonium bromide (allyl THPB) prepared as described in Ex3 was compared with 2, 6-dichlorobenzyl tris (hydroxymethyl) phosphonium bromide and THPS in a biocide test as described in example 5. […]

[1] = Example 5, summary in words of Table 1
[2] = Table 1 (Example 5), 150 ppm, after 17 hours, control 10⁶
[3] = Table 1 (Example 5), 200 ppm, after 17 hours, control 10⁶
[4] = Table 3 (Example 7), 100 ppm, test as in example 5
[5] = Table 3 (Example 7), 150 ppm, test as in example 5
[6] = Table 3 (Example 7), 200 ppm, test as in example 5

CC[P+](CO)(CO)CO.[Cl-] [ETHYL THPC, Ethyl tris (hydroxymethyl) phosphonium chloride]
bactericidal activity [1]: more effective than THPS at lower concentrations
Bacterial counts per ml. of solution (Table 1 (Example 5), 100 ppm, after 17 hours, control 10⁶): 0 per ml
Bacterial counts per ml. of solution [2]: 0 per ml
Bacterial counts per ml. of solution [3]: 0 per ml

OC[P+](CO)(CO)CO [THPS, reference compound]
bactericidal activity [1]: effective
Bacterial counts per ml. of solution [2]: 0 per ml
Bacterial counts per ml. of solution [3]: 0 per ml
bacterial counts per ml. (200 ppm, after 17 hours): 0 per ml
bacterial counts per ml. (1000 ppm, after 17 hours): 0 per ml
Bacterial counts per ml. of solution [4]: 0 per ml
Bacterial counts per ml. of solution [5]: 0 per ml
Bacterial counts per ml. of solution [6]: 0 per ml

C=CC[P+](CO)(CO)CO.[Br-] [ALLYL THPB, Allyl tris (hydroxymethyl) phosphonium bromide]
bactericidal activity (Example 7, summary in words of Table 3): performs at least as well as THPS
Bacterial counts per ml. of solution [4]: 0 per ml
Bacterial counts per ml. of solution [5]: 0 per ml
Bacterial counts per ml. of solution [6]: 0 per ml

C[P+](CO)(CO)CO.[Cl-] [METHYL THPC, Methyl tris (hydroxy methyl) phosphonium chloride]
bacterial counts per ml. (200 ppm, after 17 hours): 0 per ml
bacterial counts per ml. (1000 ppm, after 17 hours): 0 per ml

Reference: patent EP0380359A1, “Biocidal compositions and treatments” (Albright & Wilson Limited, priority 1989, dated 1990)
